Measured values as given in patent publication US20090156518A1, “STABLE PHARMACEUTICAL COMPOSITION COMPRISING BETA-LACTAM ANTIBIOTIC AND BUFFER” (priority 2006, published 2009).
Marks after values point to notes of the source that are not given here.

Assay: amounts of β-lactam antibiotic, β-lactamase inhibitor (C18 reverse-phase LC, UV-VIS) and aminoglycoside (HPLC-ELSD) in solution over time
Format: physicochemical

CC1(C)S[C@@H]2[C@H](NC(=O)[C@H](NC(=O)N3CCN(S(C)(=O)=O)C3=O)c3ccccc3)C(=O)N2[C@H]1C(=O)O [Mezlocillin sodium]
amount of component as percentage with respect to the amount at the initial time (Example 10: mezlocillin sodium 2 g, sulbactam sodium 0.5 g, etimicin sulfate 200 mg, citrate pH 6.5, 200 mL water, room temperature, Time 0 h): 96.48%
amount of component as percentage with respect to the amount at the initial time (Example 10: mezlocillin sodium 2 g, sulbactam sodium 0.5 g, etimicin sulfate 200 mg, citrate pH 6.5, 200 mL water, room temperature, Time 1 h): 95.90%
amount of component as percentage with respect to the amount at the initial time (Example 10: mezlocillin sodium 2 g, sulbactam sodium 0.5 g, etimicin sulfate 200 mg, citrate pH 6.5, 200 mL water, room temperature, Time 2 h): 71.70%
amount of component as percentage with respect to the amount at the initial time (Example 10: mezlocillin sodium 2 g, sulbactam sodium 0.5 g, etimicin sulfate 200 mg, citrate pH 6.5, 200 mL water, room temperature, Time 4 h): 91.78%
amount of component as percentage with respect to the amount at the initial time (Example 10: mezlocillin sodium 2 g, sulbactam sodium 0.5 g, etimicin sulfate 200 mg, citrate pH 6.5, 200 mL water, room temperature, Time 6 h): 93.08%
amount of component as percentage with respect to the amount at the initial time (Example 10: mezlocillin sodium 2 g, sulbactam sodium 0.5 g, etimicin sulfate 200 mg, citrate pH 6.5, 200 mL water, room temperature, Time 8 h): 97.69%
amount of component as percentage with respect to the amount at the initial time (Example 11: freeze-dried mezlocillin sodium, sulbactam sodium, citrate pH 6.5, 7 days 0° C., in 100 mL 5% fructose + etimicin sulfate 200 mg, Time 0 h): 116.6%
amount of component as percentage with respect to the amount at the initial time (Example 11: freeze-dried mezlocillin sodium, sulbactam sodium, citrate pH 6.5, 7 days 0° C., in 100 mL 5% fructose + etimicin sulfate 200 mg, Time 1 h): 94.83%
amount of component as percentage with respect to the amount at the initial time (Example 11: freeze-dried mezlocillin sodium, sulbactam sodium, citrate pH 6.5, 7 days 0° C., in 100 mL 5% fructose + etimicin sulfate 200 mg, Time 2 h): 91.86%
amount of component as percentage with respect to the amount at the initial time (Example 11: freeze-dried mezlocillin sodium, sulbactam sodium, citrate pH 6.5, 7 days 0° C., in 100 mL 5% fructose + etimicin sulfate 200 mg, Time 4 h): 91.96%
amount of component as percentage with respect to the amount at the initial time (Example 11: freeze-dried mezlocillin sodium, sulbactam sodium, citrate pH 6.5, 7 days 0° C., in 100 mL 5% fructose + etimicin sulfate 200 mg, Time 6 h): 91.52%
amount of component as percentage with respect to the amount at the initial time (Example 11: freeze-dried mezlocillin sodium, sulbactam sodium, citrate pH 6.5, 7 days 0° C., in 100 mL 5% fructose + etimicin sulfate 200 mg, Time 8 h): 98.56%
amount of component as percentage with respect to the amount at the initial time (Example 13: freeze-dried mezlocillin sodium, citrate pH 6, 7 days 0° C., in 100 mL 5% fructose + etimicin sulfate 200 mg, Time 0 h): 95.05%
amount of component as percentage with respect to the amount at the initial time (Example 13: freeze-dried mezlocillin sodium, citrate pH 6, 7 days 0° C., in 100 mL 5% fructose + etimicin sulfate 200 mg, Time 1 h): 96.63%
amount of component as percentage with respect to the amount at the initial time (Example 13: freeze-dried mezlocillin sodium, citrate pH 6, 7 days 0° C., in 100 mL 5% fructose + etimicin sulfate 200 mg, Time 2 h): 89.33%
amount of component as percentage with respect to the amount at the initial time (Example 13: freeze-dried mezlocillin sodium, citrate pH 6, 7 days 0° C., in 100 mL 5% fructose + etimicin sulfate 200 mg, Time 4 h): 98.72%
amount of component as percentage with respect to the amount at the initial time (Example 13: freeze-dried mezlocillin sodium, citrate pH 6, 7 days 0° C., in 100 mL 5% fructose + etimicin sulfate 200 mg, Time 6 h): 92.73%
amount of component as percentage with respect to the amount at the initial time (Example 13: freeze-dried mezlocillin sodium, citrate pH 6, 7 days 0° C., in 100 mL 5% fructose + etimicin sulfate 200 mg, Time 8 h): 92.51%

NCC[C@H](O)C(=O)N[C@@H]1C[C@H](N)[C@@H](O[C@H]2O[C@H](CN)[C@@H](O)[C@H](O)[C@H]2O)[C@H](O)[C@H]1O[C@H]1O[C@H](CO)[C@@H](O)[C@H](N)[C@H]1O.O=S(=O)(O)O.O=S(=O)(O)O [Amikacin sulfate, amikacin sulfate]
amount of component as percentage with respect to the amount at the initial time (Example 5: freeze-dried cefoperazone sodium 4 g, sulbactam sodium 0.5 g, citrate pH 6.75, + amikacin sulfate 500 mg, 7 days 0° C., dissolved in 100 mL water, Time 0 h): 98.98%
amount of component as percentage with respect to the amount at the initial time (Example 5: freeze-dried cefoperazone sodium 4 g, sulbactam sodium 0.5 g, citrate pH 6.75, + amikacin sulfate 500 mg, 7 days 0° C., dissolved in 100 mL water, Time 1 h): 98.73%
amount of component as percentage with respect to the amount at the initial time (Example 5: freeze-dried cefoperazone sodium 4 g, sulbactam sodium 0.5 g, citrate pH 6.75, + amikacin sulfate 500 mg, 7 days 0° C., dissolved in 100 mL water, Time 2 h): 98.52%
amount of component as percentage with respect to the amount at the initial time (Example 5: freeze-dried cefoperazone sodium 4 g, sulbactam sodium 0.5 g, citrate pH 6.75, + amikacin sulfate 500 mg, 7 days 0° C., dissolved in 100 mL water, Time 4 h): 98.41%
amount of component as percentage with respect to the amount at the initial time (Example 5: freeze-dried cefoperazone sodium 4 g, sulbactam sodium 0.5 g, citrate pH 6.75, + amikacin sulfate 500 mg, 7 days 0° C., dissolved in 100 mL water, Time 6 h): 98.76%
amount of component as percentage with respect to the amount at the initial time (Example 17: freeze-dried cefoperazone sodium 4 g, sulbactam sodium 1 g, citrate pH 6.75, 7 days 0° C., in 100 mL water, 10 mL + amikacin sulfate 40 mg, room temperature, Time 0 h): 99.91%
amount of component as percentage with respect to the amount at the initial time (Example 17: freeze-dried cefoperazone sodium 4 g, sulbactam sodium 1 g, citrate pH 6.75, 7 days 0° C., in 100 mL water, 10 mL + amikacin sulfate 40 mg, room temperature, Time 1 h): 99.50%
amount of component as percentage with respect to the amount at the initial time (Example 17: freeze-dried cefoperazone sodium 4 g, sulbactam sodium 1 g, citrate pH 6.75, 7 days 0° C., in 100 mL water, 10 mL + amikacin sulfate 40 mg, room temperature, Time 2 h): 98.88%
amount of component as percentage with respect to the amount at the initial time (Example 17: freeze-dried cefoperazone sodium 4 g, sulbactam sodium 1 g, citrate pH 6.75, 7 days 0° C., in 100 mL water, 10 mL + amikacin sulfate 40 mg, room temperature, Time 4 h): 99.45%
amount of component as percentage with respect to the amount at the initial time (Example 17: freeze-dried cefoperazone sodium 4 g, sulbactam sodium 1 g, citrate pH 6.75, 7 days 0° C., in 100 mL water, 10 mL + amikacin sulfate 40 mg, room temperature, Time 6 h): 98.56%
amount of component as percentage with respect to the amount at the initial time (Example 17: freeze-dried cefoperazone sodium 4 g, sulbactam sodium 1 g, citrate pH 6.75, 7 days 0° C., in 100 mL water, 10 mL + amikacin sulfate 40 mg, room temperature, Time 8 h): 99.36%

C[C@]1(Cn2ccnn2)[C@H](C(=O)O)N2C(=O)C[C@H]2S1(=O)=O [Tazobactam sodium]
amount of component as percentage with respect to the amount at the initial time (Example 8: freeze-dried ceftriaxone sodium, tazobactam sodium, gentamicin sulfate, citrate pH 6.75, 2.5% fructose, 7 days 0° C., in 100 mL water, Time 0 h): 102.2%
amount of component as percentage with respect to the amount at the initial time (Example 8: freeze-dried ceftriaxone sodium, tazobactam sodium, gentamicin sulfate, citrate pH 6.75, 2.5% fructose, 7 days 0° C., in 100 mL water, Time 1 h): 97.53%
amount of component as percentage with respect to the amount at the initial time (Example 8: freeze-dried ceftriaxone sodium, tazobactam sodium, gentamicin sulfate, citrate pH 6.75, 2.5% fructose, 7 days 0° C., in 100 mL water, Time 2 h): 94.16%
amount of component as percentage with respect to the amount at the initial time (Example 8: freeze-dried ceftriaxone sodium, tazobactam sodium, gentamicin sulfate, citrate pH 6.75, 2.5% fructose, 7 days 0° C., in 100 mL water, Time 4 h): 94.58%
amount of component as percentage with respect to the amount at the initial time (Example 8: freeze-dried ceftriaxone sodium, tazobactam sodium, gentamicin sulfate, citrate pH 6.75, 2.5% fructose, 7 days 0° C., in 100 mL water, Time 6 h): 95.45%
amount of component as percentage with respect to the amount at the initial time (Example 8: freeze-dried ceftriaxone sodium, tazobactam sodium, gentamicin sulfate, citrate pH 6.75, 2.5% fructose, 7 days 0° C., in 100 mL water, Time 8 h): 94.44%
amount of component as percentage with respect to the amount at the initial time (Example 16: 10 mL of the final solution (cefoperazone sodium, tazobactam sodium, etimicin sulfate, citrate) + gentamicin sulfate 16 mg, Time 0 h): 93.36%
amount of component as percentage with respect to the amount at the initial time (Example 16: 10 mL of the final solution (cefoperazone sodium, tazobactam sodium, etimicin sulfate, citrate) + gentamicin sulfate 16 mg, Time 1 h): 104.8%
amount of component as percentage with respect to the amount at the initial time (Example 16: 10 mL of the final solution (cefoperazone sodium, tazobactam sodium, etimicin sulfate, citrate) + gentamicin sulfate 16 mg, Time 2 h): 100.0%
amount of component as percentage with respect to the amount at the initial time (Example 16: 10 mL of the final solution (cefoperazone sodium, tazobactam sodium, etimicin sulfate, citrate) + gentamicin sulfate 16 mg, Time 4 h): 96.58* %
amount of component as percentage with respect to the amount at the initial time (Example 16: 10 mL of the final solution (cefoperazone sodium, tazobactam sodium, etimicin sulfate, citrate) + gentamicin sulfate 16 mg, Time 6 h): 106.1* %
amount of component as percentage with respect to the amount at the initial time (Example 16: 10 mL of the final solution (cefoperazone sodium, tazobactam sodium, etimicin sulfate, citrate) + gentamicin sulfate 16 mg, Time 8 h): 107.1* %
amount of component as percentage with respect to the amount at the initial time (Example 16: freeze-dried cefoperazone sodium 4 g, tazobactam sodium 1 g, citrate pH 6.75, 7 days 0° C., in 100 mL water, 10 mL + etimicin sulfate 20 mg, room temperature, Time 0 h): 98.77%
amount of component as percentage with respect to the amount at the initial time (Example 16: freeze-dried cefoperazone sodium 4 g, tazobactam sodium 1 g, citrate pH 6.75, 7 days 0° C., in 100 mL water, 10 mL + etimicin sulfate 20 mg, room temperature, Time 1 h): 108.2%
amount of component as percentage with respect to the amount at the initial time (Example 16: freeze-dried cefoperazone sodium 4 g, tazobactam sodium 1 g, citrate pH 6.75, 7 days 0° C., in 100 mL water, 10 mL + etimicin sulfate 20 mg, room temperature, Time 2 h): 110.8%
amount of component as percentage with respect to the amount at the initial time (Example 16: freeze-dried cefoperazone sodium 4 g, tazobactam sodium 1 g, citrate pH 6.75, 7 days 0° C., in 100 mL water, 10 mL + etimicin sulfate 20 mg, room temperature, Time 4 h): 97.39%
amount of component as percentage with respect to the amount at the initial time (Example 16: freeze-dried cefoperazone sodium 4 g, tazobactam sodium 1 g, citrate pH 6.75, 7 days 0° C., in 100 mL water, 10 mL + etimicin sulfate 20 mg, room temperature, Time 6 h): 106.3%
amount of component as percentage with respect to the amount at the initial time (Example 16: freeze-dried cefoperazone sodium 4 g, tazobactam sodium 1 g, citrate pH 6.75, 7 days 0° C., in 100 mL water, 10 mL + etimicin sulfate 20 mg, room temperature, Time 8 h): 106.3%
amount of component as percentage with respect to the amount at the initial time (Example 20: ceftriaxone sodium 2 g, tazobactam sodium 2 g, gentamicin sulfate 160 mg, citrate pH 6.75, 200 mL water, room temperature, Time 0 h): 102.2%
amount of component as percentage with respect to the amount at the initial time (Example 20: ceftriaxone sodium 2 g, tazobactam sodium 2 g, gentamicin sulfate 160 mg, citrate pH 6.75, 200 mL water, room temperature, Time 1 h): 97.53%
amount of component as percentage with respect to the amount at the initial time (Example 20: ceftriaxone sodium 2 g, tazobactam sodium 2 g, gentamicin sulfate 160 mg, citrate pH 6.75, 200 mL water, room temperature, Time 2 h): 94.16%
amount of component as percentage with respect to the amount at the initial time (Example 20: ceftriaxone sodium 2 g, tazobactam sodium 2 g, gentamicin sulfate 160 mg, citrate pH 6.75, 200 mL water, room temperature, Time 4 h): 94.58%
amount of component as percentage with respect to the amount at the initial time (Example 20: ceftriaxone sodium 2 g, tazobactam sodium 2 g, gentamicin sulfate 160 mg, citrate pH 6.75, 200 mL water, room temperature, Time 6 h): 95.45%
amount of component as percentage with respect to the amount at the initial time (Example 20: ceftriaxone sodium 2 g, tazobactam sodium 2 g, gentamicin sulfate 160 mg, citrate pH 6.75, 200 mL water, room temperature, Time 8 h): 94.44%
